Reference: patent US12122821B2, “Regulation of glucose metabolism using anti-CGRP antibodies” (H. LUNDBECK A/S, priority 2013, dated 2024)

Columns and labels:
[1] = test system: Normal rats; assay: Hyperinsulinemic-euglycemic clamp, whole body glucose fluxes in normal rats (Example 1); assay type: in vivo, rat; conditions: vs vehicle
Procedure: To assess the effect on whole body insulin sensitivity, a clamp procedure was performed using 0.3 U/kg/h insulin and ^3H-glucose. Rats were fasted for 6 hours before 180 minutes of perfusion. Steady state was reached after 140 minutes of infusion and the means of glucose infusion rate (GIR), whole body glucose turn over (GTO), hepatic glucose production (HGP), glycolysis, and glycogen synthesis were calculated from 140 min. to 180 min. A bolus of 14-C-2-deoxyglucose was administered 1 hour before the end of the clamp to measure tissue specific glucose utilization.
The hyperinsulinemic-euglycemic clamp was performed using ^3H-glucose as a tracer and 0.3 U/kg/h insulin infusion from 02:00 pm (T0) to 05:00 pm (T+3 h). A glucose solution was infused in parallel and the infusion rate was adjusted to reach the steady state (˜100+/−10 mg/dL). Blood glucose was measured from the tip of the tail using glucometers every 10 minutes. Blood was collected (10 μL) from the tip of the tail during the last hour (steady state) and the following parameters were assessed: Glucose infusion rate; Whole body glucose utilization rate; Hepatic glucose production rate; Whole body glycogen and glycolytic rates.
Whole body Glucose fluxes.

[2] = test system: Normal rats; assay: Individual tissue glucose utilization rate (14C-2-DOG) during clamp in normal rats (Example 1); assay type: in vivo, rat; conditions: Ab14 100 mg/kg i.v., metformin 500 mg/kg p.o., vs vehicle
Procedure: To determine the individual tissue glucose utilization rate, a bolus injection of 100 μCi per rat of deoxy-D-glucose 2-^14C (^14C-2-DOG) through the femoral vein was performed 60 min before the end of the D-[3-^3H]-glucose infusion. Plasma ^14C-2-DOG disappearance and glucose concentration were determined in 10 μL drops of blood sampled from the tip of the tail vein at 0, 5, 10, 15, 20, 25, 30, 45, and 60 minutes after the injection. At the end of the experiment, vastus lateralis (VL), extensor digitorum longus (EDL) and soleus muscles, epididymal and inguinal white adipose tissues, heart apex, and skin (as negative control) were dissected, flash frozen and kept at −80° C. A piece of each tissue was dissolved in 1M NaOH and then neutralized with 1M HCl. […]. D-2-^14C deoxyglucose was differentially precipitated by the use of a zinc hydroxide (0.3M) solution or a perchloric acid solution (6%). Both radioactivity contents were measured to evaluate the glucose uptake expressed as ng/mg/min.

[3] = test system: Zucker diabetic fatty (ZDF) rat; conditions: ZDF rats
Procedure: Each pancreas was divided into 2 parts (longitudinal cut). One piece was fixed in 10% formalin solution for histopathological processing. The other piece of pancreas was flash frozen and kept at −80° C. for determination of insulin and proinsulin levels.
Each pancreas sample was fixed in 4% formalin during 24-48 hours maximum; the volume of formalin was 5-10 times higher than the sample volume to assure appropriate fixation. After 48 h, the samples were placed in 70% ethanol.

[4] = test system: Zucker diabetic fatty (ZDF) rat; assay: Oral glucose tolerance test on day 26 in ZDF rats (Example 3); assay type: in vivo
Procedure: The oral glucose tolerance test (OGTT) was performed as follows. On day 25, rats were fasted at ˜6:00 pm and an oral glucose tolerance test was performed the day after (on day 26). At ˜8:00 am (T-60) a blood collection (110 μL, EDTA) was performed for biochemical parameters measurements. One hour after (˜09:00 am), an oral glucose bolus (1.5 g/kg) was administered (T0). Blood glucose was measured (glucometer or colorimetric method in case of high glycaemia) on T-60, T0, T15, T30, T60, T90, T120, and T180 minutes. Area under the curve (AUC) was calculated based on the blood glucose values measured at T0. Plasma insulin and C-peptide were measured (ELISA method) on T-60, T15 (·40 μL of blood, EDTA), and T30 minutes (·40 μL of blood, EDTA).

[5] = test system: Zucker diabetic fatty (ZDF) rat; assay: Pancreas insulin and proinsulin content in ZDF rats (Example 3); assay type: in vivo; conditions: day 28, AB14 60 mg/kg, metformin 200 mg/kg/day, alone or combined, vs vehicle
Procedure: After 2 hours of food restriction (from 8:00 am to 10:00 am) 80 rats from the study were anesthetized on day 28 with isoflurane. Blood was collected (˜3000 μL from abdominal vein, on K2-EDTA) for the determination of AB14 plasma concentrations. Plasma (3 aliquots of ˜200 μL) was kept at −80° C. until testing. The pancreas tissue was then excised. Rats were euthanized by incision of the abdominal vein and aorta.
Each pancreas was divided into 2 parts (longitudinal cut).
Each pancreas sample was homogenized in an acid buffer, and insulin and proinsulin content were measured using ELISA kits in the following groups: […]

[6] = clamp 0.3 U/kg/h insulin, 140-180 min, Ab14 100 mg/kg i.v., metformin 500 mg/kg p.o.
[7] = Ab14 60 mg/kg/wk., Met. 200 mg/kg/day

CN(C)C(=N)N=C(N)N [metformin, reference compound]
GIR evolution during clamp ([1]; Ab14 100 mg/kg i.v., metformin 500 mg/kg p.o.): significantly increased
increase of glucose infusion rate (GIR) ([1]; clamp 0.3 U/kg/h insulin, 140-180 min, Ab14 100 mg/kg i.v. 48 h before, metformin 500 mg/kg p.o. 24 h and 4 h before): 27%
increase of glycolysis rate [1, 6]: 43%
increase of whole body glucose turn over (GTO) [1, 6]: 30%
change of glucose utilization in the heart [2]: −39%
glucose utilization rate in white adipose tissues (deep and subcutaneous) [2]: did not affect
increase of glucose utilization in mixed vastus lateralis muscle (VL) [2]: 49%
increase of glucose utilization in glycolytic extensor digitorum longus muscle (EDL) ([2]; NS): 19%
vacuolization and islet fibrosis severity ([3]; AB14 60 mg/kg, metformin, or combined, vs vehicle ZDF): trend towards a decrease
Arteries, medial/intimal hypertrophy, severity 0, incidence [3, 7]: 9
Arteries, medial/intimal hypertrophy, severity 1, incidence [3, 7]: 1
Brown pigment-laden, severity 1, incidence [3, 7]: 7
Brown pigment-laden, severity 2, incidence [3, 7]: 3
Eosinophilic granulocyte infiltration, severity 0, incidence [3, 7]: 10
Exocrine cell vacuolation, severity 0, incidence [3, 7]: 10
Fat tissue: Fat tissue necrosis, group mean score [3, 7]: 0
Interstitial fibroplasia/fibrosis, severity 0, incidence [3, 7]: 9
Interstitial fibroplasia/fibrosis, severity 1, incidence [3, 7]: 1
Interstitial hemorrhage, severity 0, incidence [3, 7]: 4
Interstitial hemorrhage, severity 1, incidence [3, 7]: 6
Islet Cell Vacuolation, severity 0, incidence [3, 7]: 1
Islet Cell Vacuolation, severity 1, incidence [3, 7]: 4
Islet Cell Vacuolation, severity 2, incidence [3, 7]: 5
Islet Fibrosis, severity 1, incidence [3, 7]: 3
Islet Fibrosis, severity 2, incidence [3, 7]: 7
Islet cell anisocytosis/anisokaryosis, severity 0, incidence [3, 7]: 2
Islet cell anisocytosis/anisokaryosis, severity 1, incidence [3, 7]: 8
Islet cell mitosis, severity 0, incidence [3, 7]: 5
Islet cell mitosis, severity 1, incidence [3, 7]: 5
Islet cell single cell necrosis, severity 0, incidence [3, 7]: 7
Islet cell single cell necrosis, severity 1, incidence [3, 7]: 3
Islet granulocytic infiltration, severity 0, incidence [3, 7]: 6
Islet granulocytic infiltration, severity 1, incidence [3, 7]: 4
Islet hemorrhage, severity 0, incidence [3, 7]: 8
Islet hemorrhage, severity 1, incidence [3, 7]: 2
Large/Giant Islets, severity 0, incidence [3, 7]: 1
Large/Giant Islets, severity 1, incidence [3, 7]: 1
Large/Giant Islets, severity 2, incidence [3, 7]: 3
Large/Giant Islets, severity 3, incidence [3, 7]: 5
Lymph node: Brown pigment-laden macrophages, group mean score [3, 7]: 0
Lymph node: Eosinophilic granulocyte infiltration, group mean score [3, 7]: 0.5
Lymph node: Erythrophagocytosis—sinusoidal, group mean score [3, 7]: 0
Lymph node: Pink protein rich sinusoidal lymph, group mean score [3, 7]: 0
Lymph node: Sinusoidal hemorrhage, group mean score [3, 7]: 0
Lymph node: Sinusoidal mast cells, group mean score [3, 7]: 0
Mononuclear cell infiltration, severity 1, incidence [3, 7]: 10
Pancreas: Arteries, medial/intimal hypertrophy, group mean score [3, 7]: 0
Pancreas: Brown pigment-laden macrophages, group mean score [3, 7]: 1
Pancreas: Eosinophilic granulocyte infiltration, group mean score [3, 7]: 0
Pancreas: Exocrine cell vacuolation, group mean score [3, 7]: 0
Pancreas: Interstitial fibroplasia/fibrosis, group mean score [3, 7]: 0
Pancreas: Interstitial hemorrhage, group mean score [3, 7]: 1
Pancreas: Islet cell anisocytosis/anisokaryosis, group mean score [3, 7]: 1
Pancreas: Islet cell mitosis, group mean score [3, 7]: 0.5
Pancreas: Islet cell single cell necrosis, group mean score [3, 7]: 0
Pancreas: Islet cell vacuolation, group mean score [3, 7]: 1.5
Pancreas: Islet fibrosis, group mean score [3, 7]: 2
Pancreas: Islet granulocytic infiltration, group mean score [3, 7]: 0
Pancreas: Islet hemorrhage, group mean score [3, 7]: 0
Pancreas: Large/giant islet(s), group mean score [3, 7]: 2.5
Pancreas: Mononuclear cell infiltration, group mean score [3, 7]: 1
Pancreas: Pancreatic ductule hyperplasia, group mean score [3, 7]: 0.5
Pancreatic ductule hyperplasia, severity 0, incidence [3, 7]: 5
Pancreatic ductule hyperplasia, severity 1, incidence [3, 7]: 5
plasma insulin and C-peptide levels 15 and 30 minutes after the glucose load ([4]; day 26, metformin 200 mg/kg/day, pioglitazone 10 mg/kg/day, vs vehicle): slightly increased
reduction in blood glucose AUC (OGTT) ([4]; day 26, pioglitazone 10 mg/kg/day, metformin 200 mg/kg/day, vs vehicle ZDF): 6%
pancreas proinsulin levels [5]: completely prevented reductions
pancreatic insulin levels [5]: significantly increased
